Assay results from the supplement of paper PMC11061612.

Key:
A204 (Rhabdomyosarcoma) = assay: Bliss excess, mean over the matrix (fraction); higher = more synergy
How it was run: (§1)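 After 24 hours at 37°C and 5% CO2 in 1536-well plates, cells in DMEM/F12 or RPMI plus 10% FBS received two-drug dose matrices for 72 hours. Viability came from CellTiter-Glo 2.0 luminescence and was scaled as inhibition, anchored at 0 by vehicle wells and at 1 by blank wells. Combination Emax is taken as the second-highest inhibition in the matrix, and Bliss excess as the observed combination effect less EA + EB − EA·EB, with EA and EB the single-agent effects.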

[1] = system: DU-4475 (Breast Carcinoma); assay: as above
How it was run: as §1

[2] = system: GA-10 (Burkitt's Lymphoma); assay: as above
How it was run: as §1

[3] = system: HCC1395 (Breast Carcinoma); assay: as above
How it was run: as §1

[4] = system: JHH-2 (Hepatocellular Carcinoma); assay: as above
How it was run: as §1

[5] = system: JVM-2 (B-Cell Non-Hodgkin's Lymphoma); assay: as above
How it was run: as §1

[6] = system: Jurkat (T-Lymphoblastic Leukemia); assay: as above
How it was run: as §1

[7] = system: MHH-ES-1 (Ewing's Sarcoma); assay: as above
How it was run: as §1

[8] = system: TE-10 (Esophageal Squamous Cell Carcinoma); assay: as above
How it was run: as §1

[9] = system: UACC-812 (Breast Carcinoma); assay: as above
How it was run: as §1

WM1552C (Melanoma) = assay: as above
How it was run: as §1

[10] = system: TE-10 (Esophageal Squamous Cell Carcinoma); assay: combination Emax (second highest fraction inhibited in the dose matrix, 72 h); higher = more inhibition; extreme values may be limits of the assay
How it was run: as §1
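Wherever Bliss excess, mean over the matrix is given: after 72 h of two-drug dosing.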

SMILES	Bliss excess (A204 (Rhabdomyosarcoma))	Bliss excess [1]	Bliss excess [2]	Bliss excess [3]	Bliss excess [4]	Bliss excess [5]	Bliss excess [6]	Bliss excess [7]	Bliss excess [8]	Bliss excess [9]	Bliss excess (WM1552C (Melanoma))	combination Emax [10]
Cc1c2c(nn1C)CSCc1cc(n(C)n1)CSc1cc(c3ccccc3c1)OCCCc1c(C(=O)O)n(C)c3c-2c(Cl)ccc13 [AZD5991] + C1CN(CCC1(C(=O)N[C@@H](CCO)C2=CC=C(C=C2)Cl)N)C3=NC=NC4=C3C=CN4 [Capivasertib] (first compound max 1 µM, 7x7, partner max 3 µM)	-0.0305	-0.0023	0.0138	-0.003	0.0621	0.0245	0.0115	0.0008	0.0484	0.0196	-0.004	0.901
CC1(C)CCC(CN2CCN(c3ccc(C(=O)NS(=O)(=O)c4ccc(NCC5CCOCC5)c([N+](=O)[O-])c4)c(Oc4cnc5[nH]ccc5c4)c3)CC2)=C(c2ccc(Cl)cc2)C1 [Venetoclax] + CN(C)CCCOc1ccc(-c2ccc3ncc4c(c3c2)n(C2CCOCC2)c(=O)n4C)cn1 [AZD0156] (first compound max 1 µM, 7x7, partner max 1 µM)	-0.0325	-0.0158	-0.0585	-0.0304	-0.028	0.0143	-0.0111	0.0177	0.0071	-0.016	-0.0674	0.674
CN(CCO)CC[C@H](CSc1ccccc1)Nc1ccc(S(=O)(=O)NC(=O)c2ccc(N3CCC([C@@H](O)c4ccccc4-c4ccc(Cl)cc4)CC3)cc2)cc1S(=O)(=O)C(F)(F)F [AZD4320] + CN(C)CCCOc1ccc(-c2ccc3ncc4c(c3c2)n(C2CCOCC2)c(=O)n4C)cn1 [AZD0156] (first compound max 1 µM, 7x7, partner max 1 µM)	-0.0468	-0.0498	0.0026	-0.0269	-0.0486	0.0248	-0.0012	-0.0062	-0.0208	-0.0283	-0.0282	0.281
CCN(CCO)CCCOc1ccc2c(Nc3cc(CC(=O)Nc4cccc(F)c4)[nH]n3)ncnc2c1 [AZD2811] + O=C(c1cc(Cc2n[nH]c(=O)c3ccccc23)ccc1F)N1CCN(C(=O)C2CC2)CC1 [Olaparib] (first compound max 1 µM, 7x7, partner max 10 µM)	0.0034	0.0213	-0.0469	-0.0546	-0.0748	-0.125	0.0634	-0.0214	0.0515	0.0076	-0.027	0.4
CN(C)CCCOc1ccc(-c2ccc3ncc4c(c3c2)n(C2CCOCC2)c(=O)n4C)cn1 [AZD0156] + CCN(CCO)CCCOc1ccc2c(Nc3cc(CC(=O)Nc4cccc(F)c4)[nH]n3)ncnc2c1 [AZD2811] (first compound max 1 µM, 7x7, partner max 1 µM)	-0.0335	-0.0135	0.0158	-0.0936	-0.031	0.0105	0.0543	0.0376	0.0126	-0.0171	-0.0135	0.332
Cc1c2c(nn1C)CSCc1cc(n(C)n1)CSc1cc(c3ccccc3c1)OCCCc1c(C(=O)O)n(C)c3c-2c(Cl)ccc13 [AZD5991] + CC1(C)CCC(CN2CCN(c3ccc(C(=O)NS(=O)(=O)c4ccc(NCC5CCOCC5)c([N+](=O)[O-])c4)c(Oc4cnc5[nH]ccc5c4)c3)CC2)=C(c2ccc(Cl)cc2)C1 [Venetoclax] (first compound max 1 µM, 7x7, partner max 1 µM)	-0.0226	0.0375	-0.0658	-0.019	-0.0156	0.0109	0.0116	0.0733	0.0262	0.0196	-0.115	0.886
CN(C)CCCOc1ccc(-c2ccc3ncc4c(c3c2)n(C2CCOCC2)c(=O)n4C)cn1 [AZD0156] + C=CCn1c(=O)c2cnc(Nc3ccc(N4CCN(C)CC4)cc3)nc2n1-c1cccc(C(C)(C)O)n1 [AZD1775] (first compound max 1 µM, partner max 1 µM)	-0.0545	-0.0036	0.026	-0.0648	-0.0233	-0.0372	0.0794	-0.0402	-0.033	-0.0561	0.0116	0.808
COc1cccc(OCCCN)c1-c1cc(Nc2cnc(C#N)cn2)n[nH]1 [Prexasertib] + C=CCn1c(=O)c2cnc(Nc3ccc(N4CCN(C)CC4)cc3)nc2n1-c1cccc(C(C)(C)O)n1 [AZD1775] (first compound max 1 µM, partner max 1 µM)	0.0437	0.114	0.0653	0.0111	0.0869	-0.0174	0.0561	0.0402	0.0262	0.0705	0.0412	0.976
Cc1c2c(nn1C)CSCc1cc(n(C)n1)CSc1cc(c3ccccc3c1)OCCCc1c(C(=O)O)n(C)c3c-2c(Cl)ccc13 [AZD5991] + C[C@@H]1COCCN1C2=NC(=NC(=C2)C3(CC3)[S@](=N)(=O)C)C4=C5C=CNC5=NC=C4 [AZD6738] (first compound max 1 µM, 7x7, partner max 10 µM)	0.0507	0.0233	-0.018	0.0307	0.0115	-0.0128	-0.0178	0.0135	-0.0332	0.0094	-0.0084	0.901
Cc1c2c(nn1C)CSCc1cc(n(C)n1)CSc1cc(c3ccccc3c1)OCCCc1c(C(=O)O)n(C)c3c-2c(Cl)ccc13 [AZD5991] + Cc1cc2ncnn2cc1Nc1ncc2c(n1)n(C1CCOCC1)c(=O)n2C [AZD7648] (first compound max 1 µM, 7x7, partner max 10 µM)	-0.0466	0.0811	-0.0508	-0.0497	-0.0272	-0.046	-0.0234	-0.0323	-0.0057	-0.0259	-0.0762	0.855
COc1cccc(OCCCN)c1-c1cc(Nc2cnc(C#N)cn2)n[nH]1 [Prexasertib] + CN(C)CCCOc1ccc(-c2ccc3ncc4c(c3c2)n(C2CCOCC2)c(=O)n4C)cn1 [AZD0156] (first compound max 1 µM, 7x7, partner max 1 µM)	-0.018	-0.0171	0.0213	-0.046	-0.0371	-0.0104	-0.0264	0.0004	-0.0174	-0.0324	-0.0036	0.938
C=CCn1c(=O)c2cnc(Nc3ccc(N4CCN(C)CC4)cc3)nc2n1-c1cccc(C(C)(C)O)n1 [AZD1775] + C[C@@H]1COCCN1C2=NC(=NC(=C2)C3(CC3)[S@](=N)(=O)C)C4=C5C=CNC5=NC=C4 [AZD6738] (first compound max 1 µM, partner max 10 µM)	-0.0421	0.0549	0.0096	0.0091	-0.0817	0.0203	0.038	-0.0135	-0.0029	0.0176	0.0011	0.901
COc1cccc(OCCCN)c1-c1cc(Nc2cnc(C#N)cn2)n[nH]1 [Prexasertib] + O=C(c1cc(Cc2n[nH]c(=O)c3ccccc23)ccc1F)N1CCN(C(=O)C2CC2)CC1 [Olaparib] (first compound max 1 µM, 7x7, partner max 10 µM)	-0.0675	-0.0174	-0.0649	-0.0368	-0.0428	0.0213	-0.0054	0.0048	-0.105	-0.0395	-0.134	0.892
COc1cccc(OCCCN)c1-c1cc(Nc2cnc(C#N)cn2)n[nH]1 [Prexasertib] + Cc1cc2ncnn2cc1Nc1ncc2c(n1)n(C1CCOCC1)c(=O)n2C [AZD7648] (first compound max 1 µM, 7x7, partner max 10 µM)	-0.091	0.0256	-0.0051	-0.0527	-0.0348	0.0171	-0.0008	-0.004	-0.0604	-0.0402	-0.0385	0.938
CC1(C)CCC(CN2CCN(c3ccc(C(=O)NS(=O)(=O)c4ccc(NCC5CCOCC5)c([N+](=O)[O-])c4)c(Oc4cnc5[nH]ccc5c4)c3)CC2)=C(c2ccc(Cl)cc2)C1 [Venetoclax] + COc1cc(Nc2ncc3c(n2)-c2ccc(Cl)cc2C(c2c(F)cccc2OC)=NC3)ccc1C(=O)O [Alisertib] (first compound max 1 µM, 7x7, partner max 10 µM)	-0.0088	0.0933	0.0181	-0.0147	-0.0018	0.0333	0.165	0.0931	-0.0401	-0.0157	-0.0613	0.639
